One assay has as its target T1, h-TGR5 (Homo sapiens, UniProt Q8TDU6).
T1 construct: expressed in transfected cells
T1 sequence (Q8TDU6 1-330): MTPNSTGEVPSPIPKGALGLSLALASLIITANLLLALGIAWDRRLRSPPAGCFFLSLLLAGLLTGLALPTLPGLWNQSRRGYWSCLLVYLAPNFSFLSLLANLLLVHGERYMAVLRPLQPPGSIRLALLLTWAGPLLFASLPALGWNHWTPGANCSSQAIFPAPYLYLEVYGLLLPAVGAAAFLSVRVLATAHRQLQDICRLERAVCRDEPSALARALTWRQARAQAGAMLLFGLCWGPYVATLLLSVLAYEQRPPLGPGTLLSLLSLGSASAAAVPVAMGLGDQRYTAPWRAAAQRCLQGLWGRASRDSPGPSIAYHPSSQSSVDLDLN
The assay is described as follows: TGR5 cAMP Assay using Cisbio cAMP Dynamic2 htrf kit (hTGR5CRE-luc HEK 293 cells). It is filed as cell-based. The conditions noted are these: h-TGR5 cAMP EC50, Table 1; read-out: cAMP (EC50). Put shortly:
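[…], 4000 hTGR5CRE-luc HEK 293 cells per well, with 0.5 mM IBMX and d2-cAMP, were incubated 30 min at room temperature with compounds in 8-point half-log series, in quadruplicate.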

The target of the next assay is T2, human TGR5 (h-TGR5) (Homo sapiens, UniProt Q8TDU6).
T2 construct: expressed in transfected cells
T2 sequence (Q8TDU6 1-330): T1 sequence (Q8TDU6 1-330)
The assay is described as follows: TGR5/CRE-Luciferiase Assay (HEK 293 hTGR5/CRE-Luc cells). It is filed as cell-based. The following applies: h-TGR5 CRE-Luc EC50, Table 1; read-out: CRE-Luc (EC50). In outline:
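HEK293 cells stably carrying hTGR5 and a CRE-luciferase reporter were exposed to serially diluted compounds (diluted in DMEM with 5% DMSO) for 6 h. Cells were then lysed in luciferase buffer, luminescence was read, and EC50 values were derived from dose-response curves.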

The values that follow come from patent US8785488B2 (Exelixis Patent Company LLC, priority 2009, dated 2014).

A word on the EC50: it is the concentration giving half of the maximal effect.

On to `CC(C)(c1ccc(F)c(F)c1)c1cnc(SCC2CCN(C(=O)NN3CCCC3)CC2)n1-c1ccc(F)cc1` [4-[({5-[1-(3,4-difluorophenyl)-1-methylethyl]-1-(4-fluorophenyl)-1H-imidazol-2-yl}thio)methyl]-N-pyrrolidin-1-ylpiperidine-1-carboxamide], for which the concentration giving a half-maximal response (EC50) at h-TGR5 and at human TGR5 (h-TGR5) was 100 to 1000 nM in each case.
As for `O=C(O)c1cc(F)c(CSc2ncc(C3(c4ccc(Cl)c(Cl)c4)CC3)n2-c2ccc(F)cc2)c(F)c1` [4-[({5-[1-(3,4-dichlorophenyl)cyclopropyl]-1-(4-fluorophenyl)-1H-imidazol-2-yl}thio)methyl]-3,5-difluorobenzoic acid], the 50% effective concentration (EC50) on h-TGR5 and at human TGR5 (h-TGR5) was 100 to 1000 nM each time.
`CC(C)(c1ccc(Cl)c(Cl)c1)c1cnc(SCc2c(F)cc(C(=O)O)cc2Cl)n1-c1ccc(F)cc1` [3-chloro-4-[({5-[1-(3,4-dichlorophenyl)-1-methylethyl]-1-(4-fluorophenyl)-1H-imidazol-2-yl}thio)methyl]-5-fluorobenzoic acid]: the figures for the half-maximal effective concentration (EC50) at h-TGR5 and on human TGR5 (h-TGR5) were 100 to 1000 nM and less than 100 nM, respectively.
The matching figures for `COc1cc(C(C)(C)c2cnc(SCc3ccc(S(=O)(=O)NC(=O)NN4CCN(C)CC4)cc3Cl)n2-c2ccc(F)cc2)ccc1Cl` [3-chloro-4-({[5-{1-[4-chloro-3-(methyloxy)phenyl]-1-methylethyl}-1-(4-fluorophenyl)-1H-imidazol-2-yl]thio}methyl)-N-{[(4-methylpiperazin-1-yl)amino]carbonyl} benzenesulfonamide]: 100 to 1000 nM and 100 to 1000 nM.
Turning to `COc1cc(-n2c(C(C)(C)c3ccc(Cl)c(Cl)c3)cnc2SCc2c(F)cccc2Cl)ccc1F` [2-{[(2-chloro-6-fluorophenyl)methyl]thio}-5-[1-(3,4-dichlorophenyl)-1-methylethyl]-1-[4-fluoro-3-(methyloxy)phenyl]-1H-imidazole], the half-maximal effective concentration (EC50) at h-TGR5 and at human TGR5 (h-TGR5) was less than 100 nM throughout.
Take `CC(C)(c1ccc2onc(N)c2c1)c1cnc(SCc2c(F)cc(C(=O)O)cc2F)n1-c1ccc(F)cc1` [4-[({5-[1-(3-amino-1,2-benzisoxazol-5-yl)-1-methylethyl]-1-(4-fluorophenyl)-1H-imidazol-2-yl}thio)methyl]-3,5-difluorobenzoic acid]: the 50% effective concentration (EC50) on h-TGR5 and on human TGR5 (h-TGR5) was less than 100 nM throughout.
Take `CC(C)(c1ccc(S(N)(=O)=O)c(Cl)c1)c1cnc(SCc2c(F)cc(C(=O)O)cc2F)n1-c1ccc(F)cn1` [4-({[5-{1-[4-(aminosulfonyl)-3-chlorophenyl]-1-methylethyl}-1-(5-fluoropyridin-2-yl)-1H-imidazol-2-yl]thio}methyl)-3,5-difluorobenzoic acid]: the concentration giving a half-maximal response (EC50) at h-TGR5 and at human TGR5 (h-TGR5) was 100 to 1000 nM in each case.
With `COc1cc(C(C)(C)c2cnc(SCc3ccc(S(=O)(=O)NC(=O)NN4CCCC4)cc3Cl)n2-c2ccc(F)cc2)ccc1F` [3-chloro-4-({[5-{1-[4-fluoro-3-(methyloxy)phenyl]-1-methylethyl}-1-(4-fluorophenyl)-1H-imidazol-2-yl]thio}methyl)-N-[(pyrrolidin-1-ylamino)carbonyl]benzenesulfonamide], the EC50 at h-TGR5 and on human TGR5 (h-TGR5) was 100 to 1000 nM throughout.
Turning to `COc1cc(-n2c(C(C)(C)c3ccc(Cl)c(Cl)c3)cnc2SCc2ccc(F)cc2Cl)ccc1F` [2-{[(2-chloro-4-fluorophenyl)methyl]thio}-5-[1-(3,4-dichlorophenyl)-1-methylethyl]-1-[4-fluoro-3-(methyloxy)phenyl]-1H-imidazole], the EC50 at h-TGR5 and at human TGR5 (h-TGR5) was 100 to 1000 nM each time.
Take `CC(C)NC(=O)NS(=O)(=O)c1ccc(CSc2ncc(C(C)(C)c3ccc(Cl)c(Cl)c3)n2-c2ccc(F)cc2)c(Cl)c1` [3-chloro-4-[({5-[1-(3,4-dichlorophenyl)-1-methylethyl]-1-(4-fluorophenyl)-1H-imidazol-2-yl}thio)methyl]-N-{[(1-methylethyl)amino]carbonyl}benzenesulfonamide]: the half-maximal effective concentration (EC50) on h-TGR5 and on human TGR5 (h-TGR5) was 100 to 1000 nM in each case.
